Results published in patent US8461328B2, “Tricyclic heterocyclic compounds, compositions and methods of use thereof” (Genentech, Inc., priority 2010, dated 2013).
pKi: −log10 of the molar value.

How the values were obtained:
Assay type in all cases: biochemical
JAK2 = molecular target: T1, JAK2 (Homo sapiens, UniProt O60674); assay: JAK2 inhibition (Table 4); conditions: read-out: JAK2 Ki
T1 construct: made in house; host or cells: SF9 insect cells (baculovirus)

JAK3 = molecular target: T2, JAK3 (Homo sapiens, UniProt P52333); assay: JAK3 inhibition (Table 4); conditions: read-out: JAK3 Ki
T2 construct: made in house; host or cells: SF9 insect cells (baculovirus)

JAK1 = molecular target: T3, JAK1 (Homo sapiens, UniProt P23458); assay: JAK1 inhibition (Table 4); conditions: read-out: JAK1 Ki
T3 construct: made in house; host or cells: SF9 insect cells (baculovirus)

TYK2 = molecular target: T4, TYK2 (Homo sapiens, UniProt P29597); assay: TYK2 inhibition (Table 4)
T4 construct: made in house; host or cells: SF9 insect cells (baculovirus)
T4 sequence (P29597 873-1187): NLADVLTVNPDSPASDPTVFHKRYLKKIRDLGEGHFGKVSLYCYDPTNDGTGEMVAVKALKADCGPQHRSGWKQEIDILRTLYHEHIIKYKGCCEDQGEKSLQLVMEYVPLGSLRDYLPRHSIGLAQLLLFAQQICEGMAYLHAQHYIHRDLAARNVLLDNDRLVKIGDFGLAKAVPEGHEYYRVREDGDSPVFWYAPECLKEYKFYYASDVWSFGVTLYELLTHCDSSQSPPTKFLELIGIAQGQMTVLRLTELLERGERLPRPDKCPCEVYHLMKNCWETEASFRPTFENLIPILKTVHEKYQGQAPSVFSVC

T1 sequence (O60674 812-1132): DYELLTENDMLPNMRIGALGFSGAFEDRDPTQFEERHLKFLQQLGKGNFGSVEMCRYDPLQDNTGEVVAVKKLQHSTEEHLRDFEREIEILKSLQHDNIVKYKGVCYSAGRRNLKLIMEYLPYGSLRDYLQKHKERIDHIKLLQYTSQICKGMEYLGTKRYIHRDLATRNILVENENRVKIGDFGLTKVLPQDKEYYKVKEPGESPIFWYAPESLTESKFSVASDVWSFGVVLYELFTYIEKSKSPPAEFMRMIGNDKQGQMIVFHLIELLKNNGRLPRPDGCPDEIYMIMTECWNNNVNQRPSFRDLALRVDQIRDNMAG
T3 sequence (P23458 852-1154): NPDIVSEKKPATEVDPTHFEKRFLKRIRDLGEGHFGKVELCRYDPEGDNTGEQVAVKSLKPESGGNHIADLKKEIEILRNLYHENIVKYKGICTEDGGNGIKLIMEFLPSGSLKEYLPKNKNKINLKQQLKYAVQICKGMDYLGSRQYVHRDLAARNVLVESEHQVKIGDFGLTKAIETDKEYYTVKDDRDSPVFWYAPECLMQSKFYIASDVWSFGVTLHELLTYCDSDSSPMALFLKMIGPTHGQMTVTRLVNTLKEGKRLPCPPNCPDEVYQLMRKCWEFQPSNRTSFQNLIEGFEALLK
T2 sequence (P52333 783-1124): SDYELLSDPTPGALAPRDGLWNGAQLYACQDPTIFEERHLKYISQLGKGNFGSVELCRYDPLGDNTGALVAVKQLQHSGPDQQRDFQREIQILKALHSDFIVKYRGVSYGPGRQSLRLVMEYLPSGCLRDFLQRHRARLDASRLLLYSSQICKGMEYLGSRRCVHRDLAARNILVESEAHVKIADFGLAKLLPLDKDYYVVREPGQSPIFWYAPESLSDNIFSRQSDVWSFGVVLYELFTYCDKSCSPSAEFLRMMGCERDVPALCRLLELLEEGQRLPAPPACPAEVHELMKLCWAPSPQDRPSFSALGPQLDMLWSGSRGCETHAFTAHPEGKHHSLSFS

| SMILES | pKi (JAK2) | pKi (JAK3) | pKi (JAK1) | pKi (TYK2) |
| --- | --- | --- | --- | --- |
| Cc1noc(C)c1S(=O)(=O)N1CCC(n2cnc3cnc4[nH]ccc4c32)CC1 [Example 447, 1-[1-(3,5-Dimethyl-isoxazole-4-sulfonyl)-piperidin-4-yl]-1,6-dihydro-1,3,5,6-tetraaza-as-indacene] | 7.67 | 6.32 | 7.79 | 7.07 |
| Cc1nn(C)cc1S(=O)(=O)N1CCC(n2cnc3cnc4[nH]ccc4c32)CC1 [Example 448, 1-[1-(1,3-Dimethyl-1H-pyrazole-4-sulfonyl)-piperidin-4-yl]-1,6-dihydro-1,3,5,6-tetraaza-as-indacene] | 7.45 | 6.06 | 7.46 | 6.57 |
| O=S(=O)(Cc1ccccc1)N1CCC(n2cnc3cnc4[nH]ccc4c32)CC1 [Example 449, 1-(1-Phenylmethanesulfonyl-piperidin-4-yl)-1,6-dihydro-1,3,5,6-tetraaza-as-indacene] | 8.09 | 7.49 | 8.46 | 7.24 |
| CS(=O)(=O)c1ccc(S(=O)(=O)N2CCC(n3cnc4cnc5[nH]ccc5c43)CC2)cc1 [Example 450, 1-(1-(4-(methylsulfonyl)phenylsulfonyl)piperidin-4-yl)-1,6-dihydroimidazo[4,5-d]pyrrolo[2,3-b]pyridine] | 7.99 | 6.18 | 8.51 | 7.48 |
| CC(C)(C#N)C(=O)N1CCC(n2cnc3cnc4[nH]ccc4c32)CC1 [Example 451, 2,2-Dimethyl-3-oxo-3-[4-(6H-1,3,5,6-tetraaza-as-indacen-1-yl)-piperidin-1-yl]-propionitrile] | 7.44 | 6.37 | 7.44 | 6.49 |

Next, values leading:

| pKi (JAK2) | pKi (JAK3) | pKi (JAK1) | pKi (TYK2) | SMILES |
| --- | --- | --- | --- | --- |
| 7.11 | 6.29 | 7.73 | 6.58 | O=C([C@@H]1COCCN1)N1CCC(n2cnc3cnc4[nH]ccc4c32)CC1 [Example 455, (S)-Morpholin-3-yl-[4-(6H-1,3,5,6-tetraaza-as-indacen-1-yl)-piperidin-1-yl]-methanone] |
| 6.45 | 6.46 | 7.15 | 6.75 | C[C@@H](O)c1nc2cnc3[nH]ccc3c2n1[C@@H]1CCCOC1 [Example 456, (R)-1-[(R)-1-(Tetrahydro-pyran-3-yl)-1,6-dihydro-1,2,3,5,6-tetraaza-as-indacen-2-yl]-ethanol] |
| 7.11 | 6.37 | 7.49 | 6.64 | c1cc2c(ncc3nnn(C4CCOCC4)c32)[nH]1 [Example 467, 1-(Tetrahydro-pyran-4-yl)-1,6-dihydro-1,2,3,5,6-pentaaza-as-indacene] |
| 7.33 | 6.83 | 7.84 | 7.08 | c1cc2c(ncc3ncn(C4CCOCC4)c32)[nH]1 [Example 468, 1-(Tetrahydro-pyran-4-yl)-1,6-dihydro-1,3,5,6-tetraaza-as-indacene] |
| 5.84 | 6.32 | 6.67 | 5.75 | c1cncc(Cc2nc3cnc4[nH]ccc4c3n2C2CCOCC2)c1 [Example 469, 2-Pyridin-3-ylmethyl-1-(tetrahydro-pyran-4-yl)-1,6-dihydro-1,3,5,6-tetraaza-as-indacene] |
| 6.25 | 7.19 | 6.71 | 6.45 | O=c1ccn(Cc2nc3cnc4[nH]ccc4c3n2C2CCOCC2)c(=O)[nH]1 [Example 470, 1-[1-(Tetrahydro-pyran-4-yl)-1,6-dihydro-1,3,5,6-tetraaza-as-indacen-2-ylmethyl]-1H-pyrimidine-2,4-dione] |
| 6.11 | 6.14 | 6.56 | 6.10 | Cc1n[nH]c(C)c1CCc1nc2cnc3[nH]ccc3c2n1C1CCOCC1 [Example 471, 2-[2-(3,5-Dimethyl-1H-pyrazol-4-yl)-ethyl]-1-(tetrahydro-pyran-4-yl)-1,6-dihydro-1,3,5,6-tetraaza-as-indacene] |
